# Laboratory results taken from US11643417B2, “Tetrahydrobenzofurodiazepinone compound and pharmaceutical use thereof” (priority 2020, dated 2023).
# Molecular target: human Pim-1 (Homo sapiens (Human), UniProt P11309)
# Assay: biochemical
# Assay type: biochemical
# Settings: Ki converted from IC50; purified human Pim-1, Pim2tide substrate, ADP-Glo; read-out: hPim1 Ki
# Method: The human Pim-1 inhibitory activity of the test compounds was evaluated as follows.
# (1) Purification of Human Pim-1
# DNA fragment in which a His-Tag sequence and a translation termination sequence are added to the 3′-end of human Pim-1 translation sequence was amplified by PCR (Polymerase Chain Reaction), using human Pim-1 gene-inserted plasmid DNA (Kazusa DNA Laboratory, model number FXC11400) as a template. The amplified DNA fragment was fused with pGEx-6P-1 (GE Healthcare Japan, model number 27-4597-1) digested with BamHI and EcoRI using In-Fusion HD Cloning Kit (Takara Bio, model number 639649). […] The base sequence of Pim-1 cloned into vector was determined by Dye Terminator method using BigDye Terminator v3.1 Cycle Sequencing Kit (Applied Biosystems, model number 4337456). […] Escherichia coli BL21 (DE3) (Merck KGaA, model number 69449-4) transformed with human Pim-1-expressed plasmid DNA was cultured in 2×YT medium (Becton Dickinson, model number 2404020) at 30° C., until the optical concentration at 620 nm (OD620) reached 0.6, and then cultured overnight at 20° C. in the presence of 0.5 mmol/L isopropyl b-D-1-thiogalactopyranoside. After the completion of so the culture, the cells were collected and suspended in Homogenate Buffer (50 mmol/L Tris-HCl (pH 7.5), 500 mmol/L NaCl, 1% Tween20, complete, EDTA-free (Roche, model number 1873580)), and the suspended cells were lysed by passing through a microfluidizer M-110H (Mizuho Kogyo Co., Ltd.). The lysate was centrifuged at 10,100×g for 10 minutes, 4° C., and the supernatant was filtered through MILLEX-HV Filter (0.45 μm) (Millipore, SLHV033RS) to remove the cell residues. The filtrate was loaded onto complete His-Tag Purification Resin (Roche Diagnostics, model number 05 893 682 0.01). The column was washed with Equilibration Buffer-1 (50 mmol/L Tris-HCl (pH 7.5), 500 mmol/L NaCl, 1% Tween 20) containing 5 mmol/L Imidazole, followed by Equilibration Buffer-1 containing 50 mmol/L Imidazole, the human Pim-1 to which GST-Tag derived from pGEx-6P-1 was eluted with Equilibration Buffer-1 containing 150 mmol/L imidazole. […] The protease reaction was carried out by stirring overnight at 4° C., and the human Pim-1 in which the GST-Tag sequence was cleaved was eluted. The eluate was loaded onto a gel filtration column (Superdex-200 […] (GE Healthcare, model number 17-5175-01)) equilibrated with Equilibration Buffer-3 (50 mmol/L Tris-HCl (pH 7.5), 500 mmol/L NaCl, 0.05% Tween20, 0.5 mmol/L EDTA, 2 mmol/L DTT, 10% Glycerol), and eluted. The eluate was used as a human Pim-1 purified fraction.
# The protein concentration of the human Pim-1 purified fraction was measured with Pierce 660 nm Protein Assay Reagent (Thermo Fisher Scientific, model number 22660). The purified fraction was rapidly frozen in liquid nitrogen, and then stored at −80° C. The His-Tag-added human Pim-1 was detected by Western blotting using a mouse anti-His monoclonal antibody (WAKO, model number 011-23091).
# (2) Evaluation of Human Pim-1 Inhibitory Activity
# The calculation of the Pim-1 inhibitory activity of the compound was performed using the following solution according to the protocol attached to ADP-Glo Kinase Assay (cat. V9102, Promega). The purified enzyme of human Pim-1 described above was used.
# (i) Preparation of Solution
# The kinase buffer solution (50 mmol/L HEPES (pH 7.5), 5 mmol/L MgCl2, 1 mmol/L DTT, 0.05% BSA) was prepared by dissolving HEPES (Jena Bioscience), MgCl2 (Sigma-Aldrich), DTT (Sigma-Aldrich) and BSA (Sigma-Aldrich) in purified water.
# The ATP solution (288 μmol/L) was prepared by dissolving 100 mmol/L ATP (Promega) in the kinase buffer solution.
# human Pim-1, sequence (P11309 whole entry): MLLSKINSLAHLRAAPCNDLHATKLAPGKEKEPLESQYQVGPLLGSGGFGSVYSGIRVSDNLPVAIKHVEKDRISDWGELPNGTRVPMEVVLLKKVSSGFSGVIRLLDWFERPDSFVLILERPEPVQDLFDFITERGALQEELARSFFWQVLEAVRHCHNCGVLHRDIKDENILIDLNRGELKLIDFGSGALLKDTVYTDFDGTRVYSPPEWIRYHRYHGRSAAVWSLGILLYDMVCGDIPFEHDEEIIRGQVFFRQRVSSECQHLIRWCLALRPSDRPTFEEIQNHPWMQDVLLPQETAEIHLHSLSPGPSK
row,SMILES,Ki [nM]
1,N#CC1CCOC(CCN2CCNC(=O)c3oc4ccc(C(F)(F)F)cc4c32)C1 (stereo not shown) [Example 2],1.12
2,CC1COC(CCN2CCNC(=O)c3oc4ccc(C(F)(F)F)cc4c32)CC1O (stereo not shown) [Example 3],0.606
3,O=C1NCCN(CCC2CC(O)(CO)CCO2)c2c1oc1ccc(C(F)(F)F)cc21 (stereo not shown) [Example 4],0.442
4,O=C1NCCN(CCC2CCC(CO)CCO2)c2c1oc1ccc(C(F)(F)F)cc21 (stereo not shown) [Example 9],0.481
5,O=C1NCCN(CC(F)(F)C2CC(O)(CO)CCO2)c2c1oc1ccc(C(F)(F)F)cc21 (stereo not shown) [Example 13],0.021
6,O=C1NCCN(CC2(F)COC2)c2c1oc1ccc(C(F)(F)F)cc21 [Example 16],10.9
7,COC(C1CC(O)C1)C1(CN2CCNC(=O)c3oc4ccc(C(F)(F)F)cc4c32)CC1 (stereo not shown) [Example 17],0.234
8,O=C1NCCN(CC(F)(F)C2CC(O)(C(F)(F)F)CCO2)c2c1oc1ccc(C(F)(F)F)cc21 (stereo not shown) [Example 19],0.101
9,CN1CCN(CC(F)(F)C2CC(O)CCO2)c2c(oc3ccc(C(F)(F)F)cc23)C1=O (stereo not shown) [Example 20],0.38
10,CN1CCN(CC(F)(F)C2CC(O)(CO)CCO2)c2c(oc3ccc(C(F)(F)F)cc23)C1=O (stereo not shown) [Example 21],0.33
11,O=C1NCCN(CCC2CCCCC2)c2c1oc1ccc(C(F)(F)F)cc21 [Example 25],11
12,CC(C)(O)C1(O)CCOC(C(F)(F)CN2CCNC(=O)c3oc4ccc(C(F)(F)F)cc4c32)C1 (stereo not shown) [Example 30],0.0577
13,N#CC1(CCO)CCOC(C(F)(F)CN2CCNC(=O)c3oc4ccc(C(F)(F)F)cc4c32)C1 (stereo not shown) [Example 33],0.0793
14,COC1(CO)CCOC(C(F)(F)CN2CCNC(=O)c3oc4ccc(C(F)(F)F)cc4c32)C1 (stereo not shown) [Example 34],0.0206
15,O=C1NCCN(CCC2CC(O)CCC2(F)F)c2c1oc1ccc(C(F)(F)F)cc21 (stereo not shown) [Example 38],0.189
16,O=C1NCCN(CCC2CCCCO2)c2c1oc1ccc(C(F)(F)F)cc21 (stereo not shown) [Example 40],0.969
17,O=C1NCCN(CC[C@H]2CO[C@H](CO)CO2)c2c1oc1ccc(C(F)(F)F)cc21 [Example 41],0.933
18,O=C1NCCN(CC[C@H]2CO[C@@H](CO)CO2)c2c1oc1ccc(C(F)(F)F)cc21 [Example 42],0.567
19,C[C@H]1CO[C@@H](CCN2CCNC(=O)c3oc4ccc(C(F)(F)F)cc4c32)CO1 [Example 43],0.741
20,C[C@@H]1CO[C@@H](CCN2CCNC(=O)c3oc4ccc(C(F)(F)F)cc4c32)CO1 [Example 44],1.04
21,O=C1NCCN(CC(F)(F)C2CC(CO)CCO2)c2c1oc1ccc(C(F)(F)F)cc21 (stereo not shown) [Example 47],0.0246
22,CC(C)(O)C1CCOC(C(F)(F)CN2CCNC(=O)c3oc4ccc(C(F)(F)F)cc4c32)C1 (stereo not shown) [Example 49],0.0389
23,O=C1NCCN(CC(F)(F)C2CC(OC(F)F)CCO2)c2c1oc1ccc(C(F)(F)F)cc21 (stereo not shown) [Example 54],0.133
24,"CC1(O)CCOC(C(F)(F)CN2CCNC(=O)c3oc4ccc(C(F)(F)F)cc4c32)C1 (stereo not shown) [Example 58, 1-(2,2-difluoro-2-(4-hydroxy-4-methyltetrahydro-2H-pyran-2-yl)ethyl)-9-(trifluoromethyl)-1,2,3,4-tetrahydro-5H-benzofuro[3,2-e][1,4]diazepin-5-one]",0.0167

row,SMILES,Ki [nM]
1,"CC1(O)CCOC(C(F)(F)CN2CCNC(=O)c3oc4ccc(C(F)(F)F)cc4c32)C1 (stereo not shown) [Example 59, 1-(2,2-difluoro-2-(4-hydroxy-4-methyltetrahydro-2H-pyran-2-yl)ethyl)-9-(trifluoromethyl)-1,2,3,4-tetrahydro-5H-benzofuro[3,2-e][1,4]diazepin-5-one]",0.107
2,O=C1NCCN(CC(F)(F)C2CC(O)CCC2(F)F)c2c1oc1ccc(C(F)(F)F)cc21 (stereo not shown) [Example 62],0.0461
3,C[C@H]1CO[C@H](CCN2CCNC(=O)c3oc4ccc(C(F)(F)F)cc4c32)CO1 [Example 63],0.452
4,C[C@@H]1CO[C@H](CCN2CCNC(=O)c3oc4ccc(C(F)(F)F)cc4c32)CO1 [Example 64],0.263
5,O=C1NCCN(CC(F)(F)C2CCOCC2)c2c1oc1ccc(C(F)(F)F)cc21 [Example 65],0.12
6,"CC1(O)CCOC(C(F)(F)CN2CCNC(=O)c3oc4ccc(C(F)(F)F)cc4c32)C1 (stereo not shown) [Example 66, 1-(2,2-difluoro-2-(4-hydroxy-4-methyltetrahydro-2H-pyran-2-yl)ethyl)-9-(trifluoromethyl)-1,2,3,4-tetrahydro-5H-benzofuro[3,2-e][1,4]diazepin-5-one]",0.0283
7,"CC1(O)CCOC(C(F)(F)CN2CCNC(=O)c3oc4ccc(C(F)(F)F)cc4c32)C1 (stereo not shown) [Example 67, 1-(2,2-difluoro-2-(4-hydroxy-4-methyltetrahydro-2H-pyran-2-yl)ethyl)-9-(trifluoromethyl)-1,2,3,4-tetrahydro-5H-benzofuro[3,2-e][1,4]diazepin-5-one]",0.242
8,O=C(OC[C@@H]1CO[C@H](CCN2CCNC(=O)c3oc4ccc(C(F)(F)F)cc4c32)CO1)c1ccccc1 [Example 69],18.5
9,CC1(C)OCC(C(F)(F)CN2CCNC(=O)c3oc4ccc(C(F)(F)F)cc4c32)CO1 [Example 71],1.3
10,O=C1NCCN(CC[C@@H]2CO[C@H](CO)CO2)c2c1oc1ccc(C(F)(F)F)cc21 [Example 72],2.29
11,O=C(OC[C@H]1CO[C@H](CCN2CCNC(=O)c3oc4ccc(C(F)(F)F)cc4c32)CO1)c1ccccc1 [Example 73],4.74
12,O=C1NCCN(CC[C@@H]2CO[C@@H](CO)CO2)c2c1oc1ccc(C(F)(F)F)cc21 [Example 74],0.738
13,O=C1CCC(CCN2CCNC(=O)c3oc4ccc(C(F)(F)F)cc4c32)CC1 [Example 75],1.62
14,"O=C1NCCN(CC(F)(F)[C@@H]2CO[C@@H](CO)CO2)c2c1oc1ccc(C(F)(F)F)cc21 [Example 77, 1-(2,2-difluoro-2-((2S,5S)-5-(hydroxymethyl)-1,4-dioxan-2-yl)ethyl)-9-(trifluoromethyl)-1,2,3,4-tetrahydro-5H-benzofuro[3,2-e][1,4]diazepin-5-one]",0.0438
15,O=C1NCCN(CC(F)(F)[C@@H]2CO[C@H](CO)CO2)c2c1oc1ccc(C(F)(F)F)cc21 [Example 78],0.227
16,C[C@]1(O)CC[C@@H](CCN2CCNC(=O)c3oc4ccc(C(F)(F)F)cc4c32)CC1 [Example 79],0.705
17,C[C@]1(O)CC[C@H](CCN2CCNC(=O)c3oc4ccc(C(F)(F)F)cc4c32)CC1 [Example 80],0.205
18,O=C1NCCN(CCC2CC3CCC(C2)O3)c2c1oc1ccc(C(F)(F)F)cc21 (stereo not shown) [Example 81],1.11
19,O=C1NCCN(CCC2CC3(COC3)C2)c2c1oc1ccc(C(F)(F)F)cc21 [Example 82],2.06
20,O=C1NCCN(CC[C@H]2CC[C@@H](O)CC2)c2c1oc1ccc(C(F)(F)F)cc21 [Example 83],0.762
21,O=C1NCCN(CC[C@H]2CC[C@@](O)(C(F)(F)F)CC2)c2c1oc1ccc(C(F)(F)F)cc21 [Example 84],0.236
22,O=C1NCCN(CC[C@H]2CC[C@](O)(C(F)(F)F)CC2)c2c1oc1ccc(C(F)(F)F)cc21 [Example 85],4.08
23,O=C1NCCN(CCC2CCC(C(=O)O)CC2)c2c1oc1ccc(C(F)(F)F)cc21 (stereo not shown) [Example 86],4.06
24,O=C1NCCN(CCC2CCS(=O)(=O)CC2)c2c1oc1ccc(C(F)(F)F)cc21 [Example 87],1.97

# Same assay, conditions: hPim1 Ki (nM), Ki converted from IC50; purified human Pim-1, Pim2tide substrate, ADP-Glo
row,SMILES,Ki [nM]
1,O=C1NCCN(CCC2CCC(O)CC2)c2c1oc1ccc(C(F)(F)F)cc21 (stereo not shown) [Example 60],0.273
